Counter-ions that a name gives are not always drawn.
target: human GlyT1c transporter (Homo sapiens (Human), UniProt P48067); experiment: Radioligand binding assay using recombinant CHO cell membranes expressing human GlyT1; conditions: human GlyT1c-expressing CHO cell membranes; hydrochloride; read-out: radioligand binding Kiapp
Text: 2. Radioligand binding assays using recombinant CHO cell membranes expressing human GlyT1: […]

human GlyT1c transporter, sequence (P48067 whole entry): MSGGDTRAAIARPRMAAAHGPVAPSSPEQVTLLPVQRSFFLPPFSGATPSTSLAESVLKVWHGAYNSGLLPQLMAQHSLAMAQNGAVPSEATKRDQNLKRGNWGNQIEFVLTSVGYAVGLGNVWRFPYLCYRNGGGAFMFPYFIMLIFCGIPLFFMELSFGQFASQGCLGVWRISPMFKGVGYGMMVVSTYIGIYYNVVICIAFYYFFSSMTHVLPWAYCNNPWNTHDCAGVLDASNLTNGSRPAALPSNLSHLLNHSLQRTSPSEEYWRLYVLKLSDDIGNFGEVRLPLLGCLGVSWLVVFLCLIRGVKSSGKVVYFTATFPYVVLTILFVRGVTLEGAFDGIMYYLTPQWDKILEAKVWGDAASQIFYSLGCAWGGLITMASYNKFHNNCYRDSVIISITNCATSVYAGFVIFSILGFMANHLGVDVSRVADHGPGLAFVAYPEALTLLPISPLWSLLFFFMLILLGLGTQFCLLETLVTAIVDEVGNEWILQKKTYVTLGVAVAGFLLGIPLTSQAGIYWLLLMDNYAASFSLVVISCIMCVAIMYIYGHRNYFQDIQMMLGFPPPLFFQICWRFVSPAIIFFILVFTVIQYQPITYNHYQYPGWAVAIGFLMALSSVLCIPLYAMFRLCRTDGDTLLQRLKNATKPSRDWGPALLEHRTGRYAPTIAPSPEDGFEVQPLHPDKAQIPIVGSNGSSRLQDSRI

| Ki [nM] | Structure (SMILES) |
| --- | --- |
| ≤ 1000 | NC1CCc2ccc(OCCNS(=O)(=O)CCC(F)(F)F)cc2C1Cc1ccccc1 (centres unmarked) [Example 100, 3,3,3-Trifluoro-propane-1-sulfonic acid [2-(7-amino-8-benzyl-5,6,7,8-tetrahydronaphthalen-2-yloxy)-ethyl]amide hydrochloride] |
| ≤ 10 | Cn1cnc(S(=O)(=O)NCCOc2ccc3c(c2)C(Cc2ccccc2)C(N2CCCC2)CC3)c1 (centres unmarked) [Example 116, N-(2-(8-Benzyl-7-(pyrrolidin-1-yl)-5,6,7,8-tetrahydronaphthalen-2-yloxy)ethyl)-1-methyl-1H-imidazole-4-sulfonamide hydrochloride] |

same assay, conditions: human GlyT1c-expressing CHO cell membranes; read-out: radioligand binding Kiapp

| Structure (SMILES) | Ki [nM] |
| --- | --- |
| O=S(=O)(CC1CC1)NCCOc1ccc2c(c1)C(Cc1cccc(F)c1)C(N1CCC1)CC2 (centres unmarked) [Example 139, N-(2-{[7-(Azetidin-1-yl)-8-(3-fluorobenzyl)-5,6,7,8-tetrahydronaphthalen-2-yl]oxy}ethyl)-1-cyclopropylmethanesulfonamide hydrochloride] | ≤ 10 |
| O=S(=O)(CC1CC1)NCCOc1ccc2c(c1)C(Cc1ccccc1)C(N1CCCC1)CC2 (centres unmarked) [Example 133, N-(2-{[8-Benzyl-7-(pyrrolidin-1-yl)-5,6,7,8-tetrahydronaphthalen-2-yl]oxy}ethyl)-1-cyclopropylmethanesulfonamide hydrochloride] | ≤ 100 |
| CCCS(=O)(=O)NCCOc1ccc2c(c1)C(Cc1ccc(F)c(Cl)c1)C(N)CC2 (centres unmarked) [Example 120, N-(2-{[7-Amino-8-(3-chloro-4-fluorobenzyl)-5,6,7,8-tetrahydronaphthalen-2-yl]oxy}ethyl)propane-1-sulfonamide hydrochloride] | ≤ 100 |
| CCN(CCOc1ccc2c(c1)C(Cc1ccc(Cl)c(Cl)c1)C(N)CC2)S(=O)(=O)c1cnn(C)c1 (centres unmarked) [Example 110, N-(2-(7-Amino-8-(3,4-dichlorobenzyl)-5,6,7,8-tetrahydronaphthalen-2-yloxy)ethyl)-N-ethyl-1-methyl-1H-pyrazole-4-sulfonamide] | ≤ 1000 |
| CCOCCS(=O)(=O)NCCOc1ccc2c(c1)C(Cc1ccc(Cl)c(Cl)c1)C(N)CC2 (centres unmarked) [Example 93, 2-Ethoxy-ethanesulfonic acid {2-[7-amino-8-(3,4-dichloro-benzyl)-5,6,7,8-tetrahydronaphthalen-2-yloxy]-ethyl}-amide hydrochloride] | ≤ 1000 |
| CN(CCOc1ccc2c(c1)C(Cc1cccc(Cl)c1)C(N)CC2)S(=O)(=O)CC1CC1 (centres unmarked) [Example 291, N-{2-[7-Amino-8-(3-chloro-benzyl)-5,6,7,8-tetrahydro-naphthalen-2-yloxy]-ethyl}-C-cyclopropyl-N-methyl-methanesulfonamide] | ≤ 10 |
| CN(CCOc1ccc2c(c1)C(Cc1ccccc1)C(N1CCC1)CC2)S(=O)(=O)c1cn(C)cn1 (centres unmarked) [Example 105, 1-Methyl-1H-imidazole-4-sulfonic acid [2-(7-azetidin-1-yl-8-benzyl-5,6,7,8-tetrahydronaphthalen-2-yloxy)-ethyl]-methyl-amide] | ≤ 100 |
| CCCS(=O)(=O)NCCCc1ccc2c(c1)C(Cc1ccc(Cl)c(Cl)c1)C(NC(C)C)CC2 (centres unmarked) [Example 272, N-{3-[8-(3,4-Dichlorobenzyl)-7-(propan-2-ylamino)-5,6,7,8-tetrahydronaphthalen-2-yl]propyl}propane-1-sulfonamide] | ≤ 100 |
| O=S(=O)(CC1CC1)NCCOc1ccc2c(c1)C(Cc1ccccc1)C(N1CCC(F)C1)CC2 (centres unmarked) [Example 136, N-[2-({8-Benzyl-7-[3-fluoropyrrolidin-1-yl]-5,6,7,8-tetrahydronaphthalen-2-yl}oxy)ethyl]-1-cyclopropylmethanesulfonamide hydrochloride] | ≤ 100 |
| NC1CCc2ccc(OCCNS(=O)(=O)C3CC3)cc2C1Cc1ccccc1 (centres unmarked) [Example 102, Cyclopropanesulfonic acid [2-(7-amino-8-benzyl-5,6,7,8-tetrahydro-naphthalen-2-yloxy)ethyl]-amide hydrochloride] | ≤ 1000 |
| Cc1cccc(CC2c3cc(OCCNS(=O)(=O)c4cn(C)cn4)ccc3CCC2N2CCCC2)c1 (centres unmarked) [Example 163, 1-Methyl-N-(2-{[8-(3-methylbenzyl)-7-(pyrrolidin-1-yl)-5,6,7,8-tetrahydronaphthalen-2-yl]oxy}ethyl)-1H-imidazole-4-sulfonamide] | ≤ 10 |
| CNC1CCc2ccc(CNS(=O)(=O)c3ccn(C)c3)cc2C1Cc1ccccc1 (centres unmarked) [Example 190, N-{[8-Benzyl-7-(methylamino)-5,6,7,8-tetrahydronaphthalen-2-yl]methyl}-1-methyl-1H-pyrrole-3-sulfonamide hydrochloride] | ≤ 10 |
| CC(=O)NC1CCc2ccc(CCCNS(=O)(=O)CC3CC3)cc2C1Cc1ccccc1 (centres unmarked) [Example 216, N-[1-Benzyl-7-(3-{[(cyclopropylmethyl)sulfonyl]amino}propyl)-1,2,3,4-tetrahydronaphthalen-2-yl]acetamide] | ≤ 10000 |
| Cc1cc(CS(=O)(=O)NCCOc2ccc3c(c2)C(Cc2ccc(Cl)c(Cl)c2)C(N)CC3)no1 (centres unmarked) [Example 87, N-{2-[7-Amino-8-(3,4-dichloro-benzyl)-5,6,7,8-tetrahydro-naphthalen-2-yloxy]-ethyl}-C-(5-methyl-isoxazol-3-yl)-methanesulfonamide hydrochloride] | ≤ 10000 |
| CC(C)NC1CCc2ccc(OCCNS(=O)(=O)CC3CC3)cc2C1Cc1cccc(C#N)c1 (centres unmarked) [Example 156, N-(2-{[8-(3-Cyanobenzyl)-7-(propan-2-ylamino)-5,6,7,8-tetrahydronaphthalen-2-yl]oxy}ethyl)-1-cyclopropylmethanesulfonamide hydrochloride] | ≤ 1000 |
| CCCS(=O)(=O)CCc1ccc2c(c1)C(Cc1cccc(Cl)c1)C(N)CC2 (centres unmarked) [Example 326, 1-(3-Chloro-benzyl)-7-[2-(propane-1-sulfonyl)-ethyl]-1,2,3,4-tetrahydro-naphthalen-2-ylamine hydrochloride] | ≤ 1000 |

Now from value to compound:

| Ki [nM] | Structure (SMILES) |
| --- | --- |
| ≤ 100 | NC1CCc2ccc(OCCNS(=O)(=O)c3ccccc3)cc2C1Cc1ccccc1 (centres unmarked) [Example 99, N-[2-(7-Amino-8-benzyl-5,6,7,8-tetrahydro-naphthalen-2-yloxy)-ethyl]-benzenesulfonamide hydrochloride] |
| ≤ 100 | NC1CCc2ccc(CCCNS(=O)(=O)CC3CC3)cc2C1Cc1cccc(Cl)c1 (centres unmarked) [Example 296, N-{3-[7-Amino-8-(3-chloro-benzyl)-5,6,7,8-tetrahydro-naphthalen-2-yl]-propyl}-C-cyclopropyl-methanesulfonamide hydrochloride] |
| ≤ 1000 | Cn1cnc(S(=O)(=O)NCCOc2ccc3c(c2)C(Cc2ccc(Cl)c(Cl)c2)C(N)CC3)n1 (centres unmarked) [Example 104, 1-Methyl-1H-[1,2,4]triazole-3-sulfonic acid {2-[7-amino-8-(3,4-dichloro-benzyl)-5,6,7,8-tetrahydro-naphthalen-2-yloxy]-ethyl}-amide] |
| ≤ 10000 | CCCS(=O)(=O)NCCCc1ccc2c(c1)C(Cc1ccccc1)C(NC(C)=O)CC2 (centres unmarked) [Example 217, N-[1-Benzyl-7-{3-[(propylsulfonyl)amino]propyl}-1,2,3,4-tetrahydronaphthalen-2-yl]acetamide] |
| ≤ 100 | CN(CCOc1ccc2c(c1)C(Cc1ccccc1)C(N1CCCC1)CC2)S(=O)(=O)c1cn(C)cn1 (centres unmarked) [Example 101, 1-Methyl-1H-imidazole-4-sulfonic acid [2-(8-benzyl-7-pyrrolidin-1-yl-5,6,7,8-tetrahydronaphthalen-2-yloxy)-ethyl]-methyl-amide hydrochloride] |
| ≤ 10 | Cn1cc(S(=O)(=O)NCc2ccc3c(c2)C(Cc2ccccc2)C(N)CC3)cn1 (centres unmarked) [Example 172, N-[(7-Amino-8-benzyl-5,6,7,8-tetrahydronaphthalen-2-yl)methyl]-1-methyl-1H-pyrazole-4-sulfonamide hydrochloride] |
| ≤ 100 | NC1CCc2ccc(CCCNS(=O)(=O)CC3CC3)cc2C1Cc1ccccc1 (centres unmarked) [Example 207, N-{3-[7-Amino-8-benzyl-5,6,7,8-tetrahydronaphthalen-2-yl]propyl}-1-cyclopropylmethanesulfonamide trifluoroacetate] |
| ≤ 1000 | Cc1nc(S(=O)(=O)NCCOc2ccc3c(c2)C(Cc2cccc(Cl)c2)C(N)CC3)cn1C (centres unmarked) [Example 316, 1,2-Dimethyl-1H-imidazole-4-sulfonic acid {2-[7-amino-8-(3-chloro-benzyl)-5,6,7,8-tetrahydro-naphthalen-2-yloxy]-ethyl}-amide hydrochloride] |
| ≤ 1000 | O=S(=O)(CC1CC1)NCc1ccc2c(c1)C(Cc1ccccc1)C(N1CCOCC1)CC2 (centres unmarked) [Example 259, N-{[8-Benzyl-7-(morpholin-4-yl)-5,6,7,8-tetrahydronaphthalen-2-yl]methyl}-1-cyclopropylmethanesulfonamide] |
| > 10000 | CCOC(=O)NC1CCc2ccc(OCCNS(=O)(=O)c3cnn(C)c3)cc2C1Cc1ccccc1Cl (centres unmarked) [Example 299, {1-(2-Chloro-benzyl)-7-[2-(1-methyl-1H-pyrazole-4-sulfonylamino)-ethoxy]-1,2,3,4-tetrahydro-naphthalen-2-yl}-carbamic acid ethyl ester] |
| ≤ 100 | CCNC1CCc2ccc(CCCNS(=O)(=O)CC3CC3)cc2C1Cc1ccccc1 (centres unmarked) [Example 224, N-{3-[8-Benzyl-7-(ethylamino)-5,6,7,8-tetrahydronaphthalen-2-yl]propyl}-1-cyclopropylmethanesulfonamide hydrochloride] |
| ≤ 100 | CN(CCOc1ccc2c(c1)C(Cc1ccccc1)C(N)CC2)S(=O)(=O)c1cnn(C)c1 (centres unmarked) [Example 109, 1-Methyl-1H-pyrazole-4-sulfonic acid [2-(7-amino-8-benzyl-5,6,7,8-tetrahydro-naphthalen-2-yloxy)-ethyl]-methyl-amide] |
| ≤ 1000 | NC1CCc2ccc(OCCNS(=O)(=O)CC3CCC3)cc2C1Cc1ccc(Cl)c(Cl)c1 (centres unmarked) [Example 106, N-{2-[7-Amino-8-(3,4-dichloro-benzyl)-5,6,7,8-tetrahydro-naphthalen-2-yloxy]-ethyl}-Ccyclobutyl-methanesulfonamide hydrochloride] |
| ≤ 100 | CCCS(=O)(=O)NCCCc1ccc2c(c1)C(Cc1ccc(Cl)cc1)C(N)CC2 (centres unmarked) [Example 201, N-{3-[7-Amino-8-(4-chlorobenzyl)-5,6,7,8-tetrahydronaphthalen-2-yl]propyl}propane-1-sulfonamide hydrochloride] |
